The values that follow are results of earlier work, collected in patent publication US12357614B2, “L-ergothioneine-containing composition” (NAGASE & CO., LTD., priority 2020, dated 2025).

The subject of one series is Escherichia coli. To be noted: EGT at 5 mM and 50 mM.
The subject of another series is OT-II CD4^+ T cells. To be noted: 30 mM EGT, co-culture with F4/80 macrophages.
Series [1] relates to mouse bone marrow-derived macrophages. To be noted: 10 mM EGT, toll-like receptor ligand stimulation.

SMILES strings stand for the structures.

In the case of `C[N+](C)(C)[C@@H](Cc1c[nH]c(=S)[nH]1)C(=O)[O-]` [EGT, N,N,N-trimethyl-L-2-thiohistidine], in the series with Escherichia coli, the “growth of Escherichia coli” value is recorded as “suppresses the growth of Escherichia coli”. In addition, in the series with OT-II CD4^+ T cells, the “Th17 polarization of OT-II CD4^+ T cells” value was “promoted”. In addition, the “production of cytokines (IL-6, IL-12p40, IL-1β, IL-10)” value in series [1] is reported as “promoted”.
